The source of these data is patent publication US5578596A, “2-alkoxy-5,6,7,8-tetrahydroquinoxaline derivatives, and production method and use thereof” (Asahi Kasei Kogyo Kabushiki Kaisha, priority 1992, dated 1996).

Usually Ki stands for a dissociation constant, usually derived from enzyme kinetics or from competition with a known ligand. A higher Ki goes with a looser hold on the target.

The structures appear in SMILES notation.

The conditions of assay [1]: known, background; cited from earlier work.
The subject of assay [2] is cisplatin-induced emesis. Briefly: Suppression of cisplatin-induced emesis in suncus. Type of assay: in vivo. To be noted: hydrochloride 0.3 mg/kg intraperitoneal, 30 min before cisplatin 20 mg/kg i.p. On the procedure:
(§1) It has been known that cisplatin and nicotine have an emesis-inducing activity. In this test, it was investigated as to whether the hydrochloride of compound (1) of the present invention has the activity to suppress the occurrence of emeses which are induced by these drugs.
Cisplatin was intraperitoneally administered to each of four suncuses (20 mg/kg). As a result, with respect to all of the suncuses, emesis occurred 10 to 20 times within 40 to 70 minutes after the administration of the cisplatin.

Assay [3] relates to nicotine-induced emesis. Description: Suppression of nicotine-induced emesis in suncus. Type of assay: in vivo. To be noted: hydrochloride 3 mg/kg intraperitoneal, 30 min before nicotine 4 mg/kg s.c. On the procedure: as §1
On the other hand, nicotine was subcutaneously administered to four suncuses (4 mg/kg). As a result, with respect to all of the suncuses, emesis was induced 11 to 29 times within 3 to 10 minutes after the administration of the nicotine.

The target of assay [4] is T1, serotonin 1A (5HT1A) receptor (Rattus norvegicus, UniProt P19327).
T1 construct: The resultant precipitate was used as a rat hippocampal membrane fraction in the following procedures; from tissue; host or cells: hippocampal membrane fraction of male SD rat (7 weeks old; animals from Charles River)
T1 sequence (P19327 1-422): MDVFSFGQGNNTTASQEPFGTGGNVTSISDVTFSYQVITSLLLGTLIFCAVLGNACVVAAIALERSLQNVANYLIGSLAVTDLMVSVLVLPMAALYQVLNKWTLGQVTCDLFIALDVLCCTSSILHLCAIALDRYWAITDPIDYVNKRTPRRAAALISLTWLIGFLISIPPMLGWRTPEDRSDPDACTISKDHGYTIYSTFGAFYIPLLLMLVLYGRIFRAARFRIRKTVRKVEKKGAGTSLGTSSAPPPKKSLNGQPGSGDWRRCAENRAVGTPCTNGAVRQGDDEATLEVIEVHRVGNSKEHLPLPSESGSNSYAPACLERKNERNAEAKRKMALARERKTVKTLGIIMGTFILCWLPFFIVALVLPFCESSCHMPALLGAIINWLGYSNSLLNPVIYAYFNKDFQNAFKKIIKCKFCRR
Briefly: Affinity for serotonin 1A (5HT1A) receptor: inhibition of 3H-8-OH-DPAT binding to rat hippocampal membrane fraction. To be noted: test compound as hydrochloride. On the procedure:
1. Affinity for serotonin 1A (5HT1A) receptor
(A) Preparation of rat hippocampal membrane fraction
A male SD strain rat (7-week old; Charles River) was decapitated, and brain was taken out therefrom quickly. 50 mM Tris-HCl buffer (pH 7.4) was added to the brain under ice cooling to obtain a suspension. The resultant suspension was homogenized, and then subjected to centrifugation at 48000 g for 15 minutes, to thereby obtain a precipitate. The precipitate was resuspended in the same Tris-HCl buffer as used above. The resultant suspension was incubated at 30° C. for 20 minutes to decompose endogenous serotonin of the rat hippocampal membrane, followed by centrifugation at 48000 g for 15 minutes to thereby obtain a precipitate. The resultant precipitate was used as a rat hippocampal membrane fraction in the following procedures.
(B) Method for the evaluation of the binding ability of ^3 H-8-hydroxy-dipropylaminotetralin (^3 H-8-OH-DPAT) to serotonin 1A receptor
The rat hippocampal membrane fraction prepared in step (A) above (about 100 to 200 μg in terms of proteins) was reacted with 0.5 nM (final concentration) ^3 H-8-OH-DPAT (which is commercially available from DuPont-NEN Research Products) and 10 μM (final concentration) pargyline (which is commercially available from Sigma Chemical Company) at 30° C. for 30 minutes to effect a reaction. The resultant reaction mixture was subjected to suction filtration using a Whatman GF/C filter, to thereby terminate the reaction. The radio-activity of ^3 H-8-OH-DPAT adsorbed on the filter was determined using a liquid scintillation counter. The obtained value is regarded as a total amount (TB) of specifically binding ^3 H-8-OH-DPAT and non-specifically binding ^3 H-8-OH-DPAT.
On the other hand, substantially the same procedure as mentioned above was repeated, except that 10 μM (final concentration) serotonin was added to the ^3 H-8-OH-DPAT and pargyline. The radioactivity of ^3 H-8-OH-DPAT adsorbed on the filter was determined in the same manner as mentioned above. The obtained value is regarded as the amount (NB) of non-specifically binding ^3 H-8-OH-DPAT.
Further, substantially the same procedure as mentioned above was repeated, except that, instead of serotonin, a test compound was used in a predetermined concentration. The radioactivity of ^3 H-8-OH-DPAT adsorbed on the filter was determined in the same manner as mentioned above. The obtained value is regarded as the amount (DTB) of binding ^3 H-8-OH-DPAT.
(C) Calculation of Ki value
The inhibition ratio of the test compound (at a certain concentration) against the binding of 3H-8-OH-DPAT (the inhibition ratio is hereinafter referred to simply as "binding inhibition ratio") was calculated according to the following formula:
Binding inhibition ratio (%)=100-(DTB-NB).div.(TB-NB)×100
With respect to each of the test compounds, the binding inhibition ratios at various concentrations (from a higher concentration to a lower concentration) were determined. The binding inhibition ratios were plotted, taking the logarithmic value of the concentration of test compound as the abscissa value, and the binding inhibition ratio as the ordinate value. Then, a curve was drawn by non-linear least square method.
The Ki value was determined according to the following formula:
[L] is the concentration (0.2 nM) of a radioactive ligand (^3 H-8-OH-DPAT) used in the test;

In assay [5] the test system is immobile state of rat in forced swimming test. Description: Anti-depression activity evaluated by forced swimming test using rats. Format: in vivo, male Wistar strain rats. To be noted: hydrochloride; for Time spent in immobile state: 30 min before test, observed 6 min, 6 rats, saline control 236 sec. On the procedure:
4. Anti-depression activity (which was evaluated by forced swimming test using rats)
When a rat is put in a water tank, the rat struggles for its life to get out of the water (that is, the rat starts a "forced swimming"). If the rat finds that it is impossible for him to get out, the rat stops swimming and assumes an immobile state. It has been known that the administration of an antidepressant can cause a violent swimming motion in the rat for getting out of the water, with a result that the time spent in the immobile state is shortened. The shortening of the time in the immobile state of the rat in the forced swimming test by the administration of the antidepressant is well correlated to the clinical anti-depression effect. Accordingly, in developing antidepressants, the forced swimming test using a rat is the most reliable screening method. In the present test, male Wistar strain rats were used. Compound 300 of the present invention (in the form of the hydrochloride thereof) was intraperitoneally administered to a rat. 30 minutes after the administration, the rat was put in a water tank and then, observed for 6 minutes. The time for the rat to keep the immobile state was measured.

The subject of assay [6] is Suncus murinus (motion sickness emesis). Description: Activities against motion sickness: acceleration-stimulus induced emesis in suncus. To be noted: 1 mg/kg intraperitoneal, 30 min before acceleration-stimulus (4 cm, 1 Hz), observed 10 min; hydrochloride; 4 suncus. Format: in vivo. The source says:
The activities of individual compounds against motion sickness were examined using Suncus murinus. Suncus murinus is a small animal belonging to the Soricidae family. It has been known that suncus is likely to suffer from motion sickness and is susceptible to occurrence of emesis [see "Seitai-no-kagaku (Science of living body)", 41, 538 (1990)]. Suncus is likely to show symptoms like the symptoms of human motion sickness under the stimulus of simple acceleration, finally leading to the occurrence of emesis. It has been recognized that motion sickness is caused by the occurrence of disorder in information, such as vision, equilibrium sense and the like, or by a stimulus which has never been memorized. Further, it has been recognized that the disorder in the inner earvestibular nucleus pathway and the high-order function of brain take part in the occurrence of motion sickness. Therefore, medicines capable of suppressing the occurrence of emesis of suncus would be useful for preventing and treating motion sickness, space sickness, emesis, dizziness and the like.
In this test, test compounds were individually administered intraperitoneally to suncus.
The time for occurrence of emesis was measured with respect to each of the test compounds, and the results are shown in Table 3.

Regarding `Cc1nccn1CC1CCc2c(c3ccccc3n2C)C1=O` (stereo not drawn) [ondansetron], in assay [1], the “effect on emesis induced by drugs other than cisplatin” value is recorded as “no effect”, the “effect on motion sickness” value is “no effect” and the “suppression of cisplatin-induced emesis” value is reported as “effective for suppressing cisplatin-induced emesis”.
Regarding `c1ccc(N2CCN(CCCCOc3cnc4c(n3)CCCC4)CC2)nc1` [Compound 300, 2-[4-{4-(2-Pyridyl)-1-piperazinyl}butoxy]-5,6,7,8-tetrahydroquinoxaline], the “occurrence of cisplatin-induced emesis” value in assay [2] was “completely suppressed”. Also, in assay [3], the “occurrence of nicotine-induced emesis” value was “completely suppressed”. Moreover, the Ki in assay [4] was determined as 1.6 nM. Further, in assay [5] (1 mg/kg and 10 mg/kg), the “time for the rat to keep the immobile state (in words)” value is on record as “remarkably shortened”. Also, the “Time spent in immobile state” value was determined as 173 s in assay [5] (1 mg/kg intraperitoneal) and 163 s in assay [5] (10 mg/kg intraperitoneal). In addition, the “Time for occurrence of emesis” value in assay [6] is recorded as “Emesis did not occur”.
`COc1cccc(N2CCN(CCCCOc3cnc4c(n3)CCCC4)CC2)n1` [Compound 539, 2-[4-{4-(6-Methoxy-2-pyridyl)-1-piperazinyl}butoxy]-5,6,7,8-tetrahydroquinoxaline] gave a Ki in assay [4] of 1.3 nM. The “Time for occurrence of emesis” value in assay [6] is recorded as “Emesis did not occur”.
